Data reported in publication PMC9884808, “Pharmacokinetics, tissue distribution, and antitumor activity of a novel compound, NY-2, in non-small cell lung cancer” (Frontiers in Pharmacology, 2023).
“Also recorded” adds a separate entry of the source.

Tests used:
[1] = system: H460; experiment: MTT cytotoxicity assay, NSCLC cells; format: cell-based; settings: Homo sapiens, NCI-H460, 48 h
Protocol: (§1) The human colorectal cancer cell lines, HCT116 and LoVo, the breast cancer cell line, T47D, the hepatocellular carcinoma cell line, HepG2, the normal human liver cell line, HL7702, human umbilical vein endothelial cells (HUVECs), and the non-small cell lung cancer cell lines, A549, H1993, HCC827, H460, were purchased from the American Type Culture Collection (Manassas, VA, United States). Cell lines were cultured in the recommended RPMI-1640 medium (AE24464298, Hyclone, United States) and DMEM medium (AE29422278, Hyclone, United States) supplemented with 10% fetal bovine serum (FBS; JC63470, FB15015, Clark, United States) with 1% penicillin-streptomycin. Cells were maintained in an incubator at 37°C with 5% CO2 (HF90,Sanyo, Japan) and passaged every 48–72 h, after detaching with 0.25% trypsin (Sigma, United States). The compounds ZLDI-8 and NY-1 to -15 were synthesized in the laboratory of Dr. Huaiwei Ding in Shenyang Pharmaceutical University, and verified by high-performance liquid chromatography (purity >95%) for use in experiments (Supplementary Figure S1). Paclitaxel was purchased from MedChemExpress (HY-B0015, 99.97% purity, United States).
(§2) Cell viability was measured by the MTT assay. HCT116, HL7702, A549, H1993, HCC827, and H460 cells were dispensed into 96-well plates at a density of 1 × 10^5 cells/mL. After 24–48 h incubation, cells were treated with the compounds at different concentrations for the indicated periods. An assay kit (WLA073, Wanlei Co., Liaoning, China), was used according to the manufacturer’s instructions to measure LDH activity, The absorbance at 450 nm was measured with a microplate reader (Elx-800, Bio-Rad, China).
(§3) First, the effects of NY-2 and ZLDI-8 on the survival rates of four NSCLC cell lines, A549, H1993, HCC827, H460, were compared by the MTT cytotoxicity assay. The various types of NSCLC cells were incubated with increasing concentrations of NY-2 and ZLDI-8 (1.25, 2.5, 5, 10, and 20 μM), and the cell viability at 48 h was measured. […] Considering that the culture time might be too long, NY-2 was selected for 48 h treatment at increasing concentrations of 2.5, 5.0, and 10 μM as the experimental conditions for subsequent in vitro experiments.

[2] = system: H1993; experiment: MTT cytotoxicity assay, NSCLC cells; format: cell-based; settings: Homo sapiens, NCI-H1993, 48 h
Protocol: as §1, §2, §3

[3] = system: HCC827; experiment: MTT cytotoxicity assay, NSCLC cells; format: cell-based; settings: Homo sapiens, 48 h
Protocol: as §1, §2, §3

[4] = system: A549; experiment: MTT cytotoxicity assay, NSCLC cells; format: cell-based; settings: Homo sapiens, 48 h
Protocol: as §1, §2, §3

[5] = system: normal human liver cell line, HL7702; experiment: MTT cytotoxicity on normal cells; format: cell-based; settings: 48 h; for cytotoxic effects on normal liver cells (HL7702): concentration ≤10 μM
Protocol: as §1, §2
First, the effects of NY-2 and ZLDI-8 on the survival rates of four NSCLC cell lines, A549, H1993, HCC827, H460, were compared by the MTT cytotoxicity assay. The various types of NSCLC cells were incubated with increasing concentrations of NY-2 and ZLDI-8 (1.25, 2.5, 5, 10, and 20 μM), and the cell viability at 48 h was measured. […]

[6] = system: T47D; experiment: MTT cell viability assay; format: cell-based, human; settings: Homo sapiens, T47D breast cancer cells
Protocol: as §1, §2
(§4) The preliminary antitumor activity of the series of ZLDI-8 derivatives, NY-1 to -15 was screened by the MTT cell viability assay. […] The antitumor activity of NY-2 on HCT116 cells was concentration- and time-dependent, and slightly better than that of the original compound, ZLDI-8.

[7] = system: LoVo; experiment: MTT cell viability assay; format: cell-based, human; settings: Homo sapiens, LoVo colorectal cancer cells
Protocol: as §1, §2, §4

[8] = system: HepG2; experiment: MTT cell viability assay; format: cell-based, human; settings: Homo sapiens, HepG2 hepatocellular carcinoma cells
Protocol: as §1, §2, §4

[9] = Hepatotoxicity and nephrotoxicity experiments in KM mice; format: in vivo; settings: for pathological changes of liver and kidney tissues (H&E): vs control; for effect on overall antioxidant capacity: T-AOC kit, ABTS method
Protocol: Animal experiments were approved by the Ethics Committee on Laboratory Animal Management of Shenyang Pharmaceutical University (Approval Document No. SYPU-SQ-001). All animals received humane care according to the local guidelines for the Care and Use of Laboratory Animals of the Shenyang Pharmaceutical University. All animals were housed under specific pathogen-free (SPF) conditions at 25°C with 50% humidity, with free access to food and water for 7 days to adapt. KM mice (male, 4–5 weeks old and weighing 18–22 g) were purchased from Liaoning Changsheng Biotechnology Co., Ltd. (Liaoning, China, animal license #SCXK-2020–0001). For the hepatotoxicity and nephrotoxicity assays, NY-2 was injected via tail vein into KM mice, and the results were used in deciding on the test dose for antitumor activity in a nude mouse cancer model. Its influence on the immune system was also determined. The treatment groups were ZLDI-8, NY-2, DMSO control, and normal saline control, with six mice in each group. The mice were fasted for 12 h before the experiment, but were allowed to drink water freely. ZLDI-8 and NY-2 were dissolved in 1% DMSO containing 1% Tween and 6 mg/kg was administered by a daily tail vein injection for seven consecutive days ([Lu et al., 2020]).
After injection of the compounds, blood was drawn and serum was collected for the determination of ALT and AST levels (Nanjing Jiancheng Bioengineering Institute, China, C009-2-1 and C010-2-1) to assess liver function. Serum creatinine (sCr, Nanjing Jiancheng Bioengineering Institute, China, C011-2-1) and blood urea nitrogen (BUN, Nanjing Jiancheng Bioengineering Institute, China, C013-2-1) were measured to assess renal function. Tumor necrosis factor-α (TNF-α, Cusabio, Wuhan, China, CSB-E04741m) and interleukin-6 (IL-6, Cusabio, Wuhan, China, CSB-E04639m) were used as markers to evaluate the immune inflammatory response, and an assay kit (T-AOC, S0119, Beyotime) was used to measure total antioxidant capacity by the ABTS method. Mice were euthanized by cervical dislocation, liver and kidney tissue was removed and fixed in formalin, dehydrated in ethanol, embedded in paraffin, and sectioned for staining with hematoxylin and eosin (H&E).
KM mice were treated with ZLDI-8 or NY-2 by tail vein injection (6 mg/kg) for 7 days, then the mice were euthanized and liver and kidney tissues were removed and sectioned. For the experiment with BALB/c nude mice, the tail vein injections of NY-2 (6 mg/kg) were continued for 28 days, and the lungs, tumor, heart, liver, and kidney were removed. Trimmed tissue samples were fixed in 4% paraformaldehyde for 24 h, dehydrated in graded ethanol solutions, embedded in paraffin and sectioned. Sections for staining were dewaxed with xylene and then rehydrated, and hematoxylin-eosin staining was performed, after which the sections were again dehydrated in ethanol and cleared with xylene before being mounted on a slide, cover-slipped and examined microscopically. The remainder of the tumors and tissues was frozen in liquid nitrogen for other studies.

[10] = 6 mg/kg daily tail vein injection, 7 days

Q: What does the source list for `Cc1c(C=C2C(=O)NC(=S)NC2=O)c2ccccc2n1CCOc1ccc(F)cc1` [NY-2]?
A: IC50 [1]: 13.5 ± 0.58 µM; IC50 [2]: 4.78 ± 0.64 µM; IC50 [3]: 5.98 ± 0.75 µM; IC50 [4]: 8.95 ± 0.58 µM; cytotoxic effects on normal liver cells (HL7702) [5]: neither ZLDI-8 nor NY-2 had any obvious cytotoxic effects on normal cells; also recorded: no obvious cytotoxic effects; toxic effects on normal liver cells (HL7702) ([5]; concentrations >10 μM): slightly weaker toxic effects than ZLDI-8; IC50 [6]: 34.7 µM; IC50 [7]: 5.82 µM; IC50 [8]: 20 µM; effect on IL-6 and TNF-α levels compared with the control group [9, 10]: no significant effect; levels of AST, ALT, sCr, and BUN compared with the control group ([9]; 6 mg/kg daily tail vein injection, 7 days, serum): no significant differences; pathological changes of liver and kidney tissues (H&E) [9, 10]: no obvious pathological changes; effect on overall antioxidant capacity [9]: neither ZLDI-8 nor NY-2 had any overt effect

Q: With `Cc1ccc(OCCn2c(C)c(C=C3C(=O)NC(=S)NC3=O)c3ccccc32)c(C)c1` [ZLDI-8, reference compound] as the compound, how does the IC50 [1] read?
A: 25.2 ± 2 µM

Q: And the IC50 [2]?
A: 8.33 ± 1.01 µM

Q: What about the IC50 [3] of the same compound?
A: 9.39 ± 0.99 µM

Q: What about the IC50 [4] of the same compound?
A: 23.1 ± 2.27 µM

Q: And the “cytotoxic effects on normal liver cells (HL7702)” value [5]?
A: neither ZLDI-8 nor NY-2 had any obvious cytotoxic effects on normal cells

Q: And the IC50 [6]?
A: 29.1 µM

Q: And the IC50 [7]?
A: 9.65 µM

Q: And the IC50 [8]?
A: 22.9 µM

Q: What about the “effect on IL-6 and TNF-α levels compared with the control group” value [9, 10] of the same compound?
A: no significant effect

Q: What about the “BUN compared with the control group” value ([9]; 6 mg/kg daily tail vein injection, 7 days, serum, only significant difference) of the same compound?
A: possible decrease

Q: What about the “pathological changes of liver and kidney tissues (H&E)” value [9, 10] of the same compound?
A: no obvious pathological changes

Q: What about the “effect on overall antioxidant capacity” value [9] of the same compound?
A: neither ZLDI-8 nor NY-2 had any overt effect
